Where a SMILES comes first, the peptide text is derived from it. Bridges are numbered along the chain shown (N, C = ends).
molecular target: BTK (Homo sapiens, UniProt Q06187); assay: biochemical; details: read-out: BTK inhibition (%)
Sequence (Q06187 402-655 limits assumed): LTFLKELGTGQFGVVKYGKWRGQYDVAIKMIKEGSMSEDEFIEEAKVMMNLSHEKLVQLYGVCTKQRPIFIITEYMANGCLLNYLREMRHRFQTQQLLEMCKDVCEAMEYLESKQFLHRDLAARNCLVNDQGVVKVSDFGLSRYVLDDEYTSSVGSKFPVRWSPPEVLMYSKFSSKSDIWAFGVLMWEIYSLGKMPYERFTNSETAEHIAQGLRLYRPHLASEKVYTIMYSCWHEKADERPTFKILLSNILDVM

| SMILES | inhibition at 10 µM |
| --- | --- |
| CC(=O)Nc1ccc(OC[C@](C)(O)C(=O)Nc2ccc([N+](=O)[O-])c(C(F)(F)F)c2)cc1 [PCM-0094957] | -1.4% |
| Cc1ccccc1CN1C(=O)C2=C(CCN(Cc3ccccc3)C2)N2CCN=C12 [PCM-0215534] | -13.8% |
| CC1(C)C(=O)N(c2ccc(C#N)c(C(F)(F)F)c2)C(=O)N1CCCCO [PCM-0216095] | 11.6% |

same assay, conditions: read-out: BTK inhibition (%), 0.75 uM BTK, […] probe 3l, 15 min preincubation

| SMILES | inhibition at 10 µM |
| --- | --- |
| CN[C@H]1C(=O)N[C@@H]2Cc3ccc(cc3)Oc3cc4cc(c3O[C@@H]3O[C@H](C(=O)O)[C@@H](O)[C@H](O)[C@H]3NC(=O)CCCCCCCCC(C)C)Oc3ccc(cc3Cl)[C@@H](O)[C@@H]3NC(=O)[C@H](NC(=O)[C@@H]4NC(=O)[C@@H](NC2=O)c2cc(cc(O)c2Cl)Oc2cc1ccc2O)c1ccc(O)c(c1)-c1c(O[C@H]2O[C@H](CO)[C@@H](O)[C@H](O)[C@@H]2O)cc(O)cc1[C@@H](C(=O)NCCCN(C)C)NC3=O [PCM-0215113] | 73.2% |
| Cc1ccccc1N=Nc1ccc(NC(=O)c2ccnn2C)c(C)c1 [PCM-0215441] | 6.9% |
| COc1ccc(/C=C/C(=O)Nc2ccccc2C(=O)O)cc1OC [PCM-0065010] | 13.8% |
| COC(=O)/C=C/c1ccc(O)cc1 [PCM-0214996] | 0% |
| CC(C)=CCC/C(C)=C/CC/C(C)=C/CCC(=O)OC/C=C(\C)CCC=C(C)C [PCM-0216575] | 7.7% |
| CC1(C)Cc2c(sc(NC(=O)c3ccn[nH]3)c2C(N)=O)C(C)(C)O1 [PCM-0216042] | 1.5% |
| CCOC(=O)c1ccc(N2NC(=O)/C(=C/c3ccc([N+](=O)[O-])o3)C2=O)cc1 [PCM-0095807] | 64.9% |
| C#CCC(Cc1cnc2nc(N)nc(N)c2n1)c1ccc(C(=O)N[C@@H](CCC(=O)O)C(=O)O)cc1 (stereo partly drawn) [PCM-0095176] | 1.6% |
| CC(=O)OCCc1ccc(O)c(O)c1 [PCM-0214986] | -9.7% |
| c1cncc(-c2cn[nH]n2)c1 [PCM-0215871] | 15.4% |
| CC1=NN(c2ccccc2)C(=O)C1 [PCM-0006147] | 6.2% |
| C/C1=C\CC[C@]23O[C@H]2[C@@H](OC3=O)c2c(C)coc2C1 [PCM-0216481] | -16.2% |
| CC(C)c1cc2c(cc1S(=O)(=O)O)[C@@]1(C)CCC[C@@](C)(C(=O)O)[C@@H]1CC2 [PCM-0216123] | 3.9% |
| COC(=O)C1=CC[C@@]23CC[C@@H]([C@@](C)(/C=C/C=C(\C)C(=O)O)OC2=O)[C@@]3(OC(C)=O)CC1 [PCM-0216239] | 2.1% |
| CCOC(=O)[C@H](CCc1ccccc1)N[C@@H](C)C(=O)N1Cc2cc(OC)c(OC)cc2C[C@H]1C(=O)O [PCM-0095243] | -6.2% |
| O=C(COc1ccc(C(=O)c2ccccc2)cc1)NC1CCN(Cc2ccccc2)CC1 [PCM-0215280] | -33.2% |
| C[C@@H](N)C1CCC(C(=O)Nc2ccncc2)CC1 (stereo partly drawn) [PCM-0094977] | -2.1% |
| CCCCCCC[C@H](O)CC(=O)CCc1ccc(O)c(OC)c1 [PCM-0216329] | -41.7% |
| O=c1[nH]c(=O)n([C@H]2C[C@H](O)[C@@H](CO)O2)cc1Br [PCM-0215515] | 3.9% |
| c1ccc(Cn2c(-c3ccc(OC[C@H](C4CCNCC4)n4c(-c5ccccc5)nc5ccccc54)cc3)nc3ccccc32)cc1 [PCM-0215350] | 86.5% |
| COc1ncc(-c2cc(-c3ncc(CN4C[C@@H](C)O[C@@H](C)C4)o3)c3cn[nH]c3c2)cc1NS(C)(=O)=O [PCM-0213408] | 6.2% |
| Oc1ncnc2[nH]ncc12 [PCM-0064482] | -5.5% |
| CC(C)(c1ccc(OCC(O)CO)cc1)c1ccc(OCC(O)CCl)cc1 (stereo not drawn) [PCM-0215567] | -2.3% |

| SMILES | inhibition at 10 µM |
| --- | --- |
| COc1ccc(COc2cc3oc(=O)c4cc(C(C)O)ccc4c3cc2OC)cc1 (stereo not drawn) [PCM-0095280] | 15.2% |
| CCN(CC)Cc1ccc2cc(COC(=O)Nc3ccc(C(=O)NO)cc3)ccc2c1 [PCM-0095219] | -10.1% |
| O=c1cc(-c2ccc(O)cc2)oc2c([C@@H]3OC[C@H](O)[C@H](O)[C@H]3O)c(O)c([C@@H]3O[C@H](CO)[C@@H](O)[C@H](O)[C@H]3O)c(O)c12 [PCM-0216486] | -13.9% |
| CC(=O)N1CCC(Nc2cc(C(=O)NC[C@H](O)CN3CCc4ccccc4C3)ncn2)CC1 [PCM-0215901] | -0.8% |
| O=C(c1ccccc1O)c1[nH]c(Cl)c(Cl)c1-n1c(C(=O)c2ccccc2O)cc(Cl)c1Cl [PCM-0215850] | 117% |
| O=c1cc(-c2ccc(O)cc2)oc2cc(O)c(O)c(O)c12 [PCM-0216408] | 70.3% |
| COc1cc2c(cc1O)CC[C@@H]1[C@@H]2CC[C@]2(C)[C@@H](O)CC[C@@H]12 [PCM-0214607] | -2.8% |
| O=c1[nH]c2ccc(Cl)cc2c(N[C@@H]2CN3CCC2CC3)c1-c1nc2ccccc2[nH]1 [PCM-0095378] | 0% |
| N#C/C(=C\c1ccc(-c2cc(Cl)ccc2Cl)o1)C(=O)Nc1cccc2ncccc12 [PCM-0215369] | 22.4% |
| CN(C)CCCn1cc(C2=C(c3c[nH]c4ccccc34)C(=O)NC2=O)c2ccccc21 [PCM-0095737] | 47.6% |
| Cc1cc2c3c([n+](C)c4ccc(F)cc4c3c1)-c1cc(F)ccc1N2C [PCM-0215703] | 13.1% |
| O=C(Nc1ccccc1)N1CCN(c2nc(-c3ccccc3)ns2)CC1 [PCM-0010620] | -3.9% |
| Nc1nonc1C(=Nc1ccc(F)c(Cl)c1)NO [PCM-0095795] | -3.1% |
| O=C(N[C@H](CO)[C@H](O)c1ccc([N+](=O)[O-])cc1)C(Cl)Cl [PCM-0214645] | -8.6% |
| O=C(O)C[C@H](O)C[C@H](O)/C=C/c1c(C2CC2)nc2ccccc2c1-c1ccc(F)cc1 [PCM-0095199] | -36.6% |
| c1cc2c(c3c1CC1c4cc5c(cc4CCN1C3)OCO5)OCO2 (stereo not drawn) [PCM-0216476] | -13.9% |
| CCN(c1cc(-c2ccc(CN3CCOCC3)cc2)cc(C(=O)NCc2c(C)cc(C)[nH]c2=O)c1C)C1CCOCC1 [PCM-0095796] | -2.6% |
| O=C(O)c1cc(C(=O)O)c(C(=O)N(Cc2cccc(Oc3ccccc3)c2)[C@H]2CCCc3ccccc32)cc1C(=O)O [PCM-0215841] | 13.1% |
| CC(C)(C)NC[C@H](O)COc1nsnc1N1CCOCC1 [PCM-0064983] | -3.9% |
| O=[N+]([O-])c1cn2c(n1)OC[C@@H](OCc1ccc(OC(F)(F)F)cc1)C2 [PCM-0094995] | 3.1% |
| O=C(NNc1nc2cc(F)ccc2n2cccc12)c1cnccn1 [PCM-0215229] | 30.1% |
| COC(=O)[C@@H]1[C@H]2C[C@H]3c4[nH]c5ccccc5c4CCN3C[C@@H]2CC[C@@H]1O [PCM-0214658] | -21.8% |
| C=CC(=O)Nc1cccc(Nc2nc(Nc3ccc(N4CCN(C(C)=O)CC4)cc3OC)ncc2C(F)(F)F)c1 [PCM-0215245] | 95.9% |

| SMILES | inhibition at 10 µM |
| --- | --- |
| CN(C)c1ccc2nc3c(C(=O)O)cc(=O)c(O)c-3oc2c1 [PCM-0216583] | 88% |
| CC(C)NCC(O)COc1cccc2ccccc12 (stereo not drawn) [PCM-0064763] | -12.5% |
| O=c1ccc2cc(O)ccc2o1 [PCM-0216289] | -10% |
| CN[C@@H]1[C@H](O[C@H]2[C@H](O[C@H]3[C@H](O)[C@@H](O)[C@H](N=C(N)N)[C@@H](O)[C@@H]3N=C(N)N)O[C@@H](C)[C@]2(O)CO)O[C@@H](CO)[C@H](O)[C@H]1O [PCM-0085923] | 9.4% |
| O=C(CCc1ccc(O)cc1)c1c(O)cc(O[C@@H]2O[C@H](CO)[C@@H](O)[C@H](O)[C@H]2O)cc1O [PCM-0216363] | 17.8% |
| NC(=O)c1ccc(-c2nc(-c3ccc4c(c3)OCCO4)c(-c3ccccn3)[nH]2)cc1 [PCM-0215472] | 17.2% |
| CCc1cc(/C(C)=N/OCc2ccc(C3CCCCC3)c(C(F)(F)F)c2)ccc1CN1CC(C(=O)O)C1 [PCM-0215423] | -62.8% |
| C1=C2CCCN[C@H]2[C@@H]2C[C@H]1[C@H]1CCCCN1C2 [PCM-0095306] | -2.6% |
| O=c1c2cc(O[C@@H]3O[C@H](CO)[C@@H](O)[C@H](O)[C@H]3O)c(O)cc2oc2cc(O)c([C@@H]3O[C@H](CO)[C@@H](O)[C@H](O)[C@H]3O)c(O)c12 [PCM-0214972] | -3.1% |
| Cc1cc(N2CCOCC2)ccc1Nc1nc(NC2CCCCC2)c2[nH]cnc2n1 [PCM-0215306] | 33.2% |
| CC(C)n1nc(-c2ccc(NC(=O)Nc3cc(C(F)(F)F)ccc3F)cc2)c2c(N)ncnc21 [PCM-0215828] | 106% |
| COc1ccc(C(C)=O)c(O)c1 [PCM-0091399] | 6.2% |
| O=c1c2ccccc2nc(/C=C/c2cccnc2)n1Cc1ccccc1 [PCM-0102024] | 0% |
| CCOC(=O)[C@H](CCc1ccccc1)N[C@H]1CCc2ccccc2N(CC(=O)O)C1=O [PCM-0086130] | -24.9% |
| CC(C(=O)Nc1cccc(N=Cc2c(O)ccc3ccccc23)c1)c1ccccc1 (stereo not drawn) [PCM-0215794] | 21.6% |
| Cc1ccc(C)c(OCCCC(C)(C)C(=O)O)c1 [PCM-0085876] | -29.6% |
| CC(C)=CCC[C@](C)(O)[C@H]1CC[C@]2(C)[C@@H]1[C@H](O)C[C@@H]1[C@@]3(C)CC[C@H](O)C(C)(C)[C@@H]3[C@@H](O)C[C@]12C [PCM-0214875] | 17.9% |
| O=C(CCc1ccc(O)cc1)c1c(O)cc(O)cc1O [PCM-0065552] | 15.2% |
| O=C(O)c1nn(Cc2ccc(Cl)cc2Cl)c2ccccc12 [PCM-0065622] | 11% |
| COc1ccc(C[C@@H]2c3cc(Oc4cc(C[C@@H]5c6cc(OC)c(OC)cc6CCN5C)ccc4O)c(OC)cc3CCN2C)cc1 [PCM-0215948] | 4.6% |
| Nc1ccccc1NC(=O)c1ccc(CNc2nccc(-c3cccnc3)n2)cc1 [PCM-0094926] | 2.8% |
| C=CC(=O)Nc1cccc(Nc2nc(Nc3ccc(NC4CN(CCF)C4)cc3OC)ncc2C(F)(F)F)c1 [PCM-0215208] | 91% |
| NCCCC[C@H](NC(=O)[C@@H]1CCCN1C(=O)[C@@H]1CSSC[C@H](NC(=O)CNC(=O)CNC(=O)CN)C(=O)N[C@@H](Cc2ccc(O)cc2)C(=O)N[C@@H](Cc2ccccc2)C(=O)N[C@@H](CCC(N)=O)C(=O)N[C@@H](CC(N)=O)C(=O)N1)C(=O)NCC(N)=O [PCM-0216274] (H-GGGCYFQNCPKG-NH2; disulfide 4-9) | -3.4% |
